Measured values as given in PubChem BioAssay (NCI).
“And” between values parts separate entries of the source, which are not always exact repeats. Equal entries are not always repeated.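 Tested at 5 concentrations; 48 h exposure; 96-well plates; endpoints linearly interpolated, else capped at highest concentration. The concentration for 50% growth inhibition is given as GI50. TGI: total growth inhibition.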

What was measured:
Assay in all cases: NCI-60 cell line screen, 48 h
A549 NSCLC = tested on: A549 NSCLC
EKVX NSCLC = tested on: EKVX NSCLC
M14 melanoma = tested on: M14 melanoma
NCI-H23 lung = tested on: NCI-H23 lung
NCI-H522 lung = tested on: NCI-H522 lung
SF-268 CNS = tested on: SF-268 CNS
SN12C renal = tested on: SN12C renal
SNB-75 CNS = tested on: SNB-75 CNS
BT-549 breast = tested on: BT-549 breast
NCI/ADR-RES ovarian = tested on: NCI/ADR-RES ovarian

SMILES | TGI (A549 NSCLC) [µM] | TGI (EKVX NSCLC) [µM] | TGI (M14 melanoma) [µM] | TGI (NCI-H23 lung) [µM] | TGI (NCI-H522 lung) | TGI (SF-268 CNS) [µM] | TGI (SN12C renal) [µM] | TGI (SNB-75 CNS) [µM] | GI50 (A549 NSCLC) | GI50 (BT-549 breast) [µM] | TGI (BT-549 breast) | GI50 (EKVX NSCLC) [µM] | GI50 (M14 melanoma) | GI50 (NCI-H23 lung) | GI50 (NCI-H522 lung) | GI50 (NCI/ADR-RES ovarian) [µM] | TGI (NCI/ADR-RES ovarian) [µM] | GI50 (SF-268 CNS) | GI50 (SN12C renal) | GI50 (SNB-75 CNS)
S=c1sc2c(n1-c1ccccc1)NC=NC2S (configuration not stated) | > 100 | > 100 | > 100 | > 100 | > 100 µM | > 100 | > 100 | > 100 |  |  |  |  |  |  |  |  |  |  |  | 
COc1nc(NC2OC(COC(C)=O)C(OC(C)=O)C(OC(C)=O)C2OC(C)=O)c2c(OC(C)=O)cc(=O)oc2n1 (configuration not stated) | > 100 | > 100 | > 100 | > 100 |  |  | > 100 | > 100 |  |  |  |  |  |  |  |  |  |  |  | 
N#C/C(=C\c1cccc(Cl)c1Cl)c1ccccc1 | > 100 | > 100 | > 100 | > 72.9 | > 100 µM | > 100 | > 100 | 51.1 |  |  |  |  |  |  |  |  |  |  |  | 
CCCOc1cc2ccccc2cc1C(=O)Nc1nc(N)c2c(ccc3nccc32)[nH]1 | 1.86 | 2.25 | 1.08 | 2.04 | 0.0426 µM | 2.86 | 3.22 |  | 0.0993 µM | 0.0998 | 2.11 µM | 0.398 | 0.0405 µM | 0.209 µM | 0.018 µM | 0.0962 | 2.24 | 0.0658 µM | 1.42 µM | 
CC(C)(C)c1cc2c(O)c3cccc4c(=O)c5cccc6c5-c(c34)c2c(c1)c6=O | > 100 | > 100 | > 100 | > 100 | > 100 µM | > 100 | > 100 | > 100 |  |  |  |  |  |  |  |  |  |  |  | 
Cc1cccc(C)c1NC(=O)CCCC(=O)C1/C(=N/NC(=O)CC#N)CCC/C1=N\NC(=O)CC#N (configuration not stated) | > 100 | > 100 | > 100 | > 100 | > 100 µM | > 100 | > 100 | > 100 |  |  |  |  |  |  |  |  |  |  |  | 
O=C(/C=C/c1ccc([N+](=O)[O-])cc1)c1ccc(NCc2nc3ccccc3[nH]2)cc1 |  | 22.2 | 24 | 15.3 | 11.9 µM | 26.6 | 14.8 | 31.5 |  |  |  |  |  |  |  |  |  |  |  | 
Cn1ccc2c3c(Oc4ccc(NC(N)=O)cc4)ccnc3ccc21 | > 100 | > 100 | > 100 | > 100 | > 100 µM | > 100 | > 100 |  | > 100 µM | > 100 | > 100 µM | > 100 | > 100 µM | > 100 µM | > 100 µM | > 100 | > 100 | > 100 µM | > 100 µM | 
Nc1c(C(=O)Nc2cccc(C(F)(F)F)c2)sc2nc3c(cc12)CCCCC3 | 11 |  | 41.5 | 10.9 | 17.7 µM | 16.2 | 19.3 | 3.93 | 2.25 µM | 1.7 | 6.33 µM |  | 4.15 µM | 1.72 µM | 2.52 µM | 3.17 | 22.9 | 2.99 µM | 3.41 µM | 1.74 µM
COc1ccc(CCN=C2NC(=O)/C(=C/c3ccc4ncccc4c3)S2)cc1 | > 25 |  | > 25 | > 25 | > 25 µM | > 25 | > 25 | > 25 | > 25 µM | > 25 | > 25 µM |  | > 25 µM | > 25 µM | > 25 µM | > 25 | > 25 | > 25 µM | > 25 µM | > 25 µM
C=CC[C@H](C[C@H](C[C@H](C[C@H](C[C@H](C[C@H](C[C@H](C[C@H](C[C@H](C[C@H](CCCCC)OC)OC)OC)OC)OC)OC)OC)OC)OC)OC | > 100 | > 100 | > 100 | > 100 | > 100 µM | > 100 | > 100 | > 100 |  |  |  |  |  |  |  |  |  |  |  | 
C/C(=N/Nc1ccc([N+](=O)[O-])cc1[N+](=O)[O-])C(CC(C(=O)NCc1ccccc1)/C(C)=N\Nc1ccc([N+](=O)[O-])cc1[N+](=O)[O-])C(=O)NCc1ccccc1 (configuration not stated) | 14.6 | 32.9 | 21.9 | 28.7 |  | 16.5 | 15.1 | 12.4 |  |  |  |  |  |  |  |  |  |  |  | 
C=C(C)CCOC(c1ccccc1)(c1ccccc1)c1ccccc1 | > 100 |  | > 100 | > 100 | 76.3 µM | > 100 | > 100 | > 100 |  |  |  |  |  |  |  |  |  |  |  | 
O=C1NC(=NC(CO)Cc2ccccc2)S/C1=C\c1ccc2ncccc2c1 (configuration not stated) | > 25 |  | > 25 | > 25 | > 25 µM and 10 µM | > 25 | > 25 | > 25 | 16.4 µM and 2.96 µM |  | > 25 µM and 11.4 µM |  | 14 µM and 7.08 µM | 17.7 µM and 2.23 µM | 8.38 µM and 2.85 µM | > 25 | > 25 | 20 µM and 4.36 µM | 14.9 µM and 3.46 µM | 10.8 µM and 1.77 µM
CCc1c(OC(C)=O)c2c(NC3OCC(OC(C)=O)C(OC(C)=O)C3OC(C)=O)nc(SC)nc2oc1=O (configuration not stated) | > 100 | > 100 | > 100 | > 100 |  |  | > 100 | > 100 |  |  |  |  |  |  |  |  |  |  |  | 
O=c1ccc2ccccc2cc1[O-].O=c1ccc2ccccc2cc1[O-].[O]=[U+2]=[O] | 56 | 55.7 | 54.5 | 90.7 | 56 µM | 51.8 | 64.1 | 32.8 | 4.78 µM |  |  | 10.4 | 16.9 µM | 27.2 µM | 11.6 µM |  |  | 22.2 µM | 23.5 µM | 14 µM
O=C(Nc1ccccc1-c1nn(C(=S)Nc2ccccc2)c(=S)n(C(=S)Nc2ccccc2)c1=O)C(F)(F)F | > 100 | 98.2 | 53.3 | > 31.6 | 58.5 µM | > 100 | > 100 | > 88.1 |  |  |  |  |  |  |  |  |  |  |  | 
CCCCN(CCCC)C(=O)C(=O)C(C(=O)c1ccc(OC)cc1)c1ccc(OC)cc1 (configuration not stated) | > 100 | > 100 | > 100 | > 100 |  | > 100 | > 100 |  |  |  |  |  |  |  |  |  |  |  |  | 
COC(=O)CC(c1ccccc1)C1(c2ccccc2)SCCS1 (configuration not stated) | > 290 | > 290 |  | > 290 | > 290 µM | > 290 | > 290 |  |  |  |  |  |  |  |  |  |  |  |  | 
O=C1CN(c2cccc(Cl)c2)C(=O)CN1CCN1CC(=O)N(c2cccc(Cl)c2)CC1=O | > 100 | > 100 | > 100 | 71.1 | > 100 µM | > 100 | > 100 | > 100 |  |  | > 100 µM |  |  |  |  |  |  |  |  | 
